Results published in US20240252428A1, “METHODS OF PROVIDING BIRTH CONTROL” (THE POPULATION COUNCIL, INC., priority 2021, published 2024).
One block for each compound: values may come before it.

Columns and labels:
progesterone receptor = molecular target: T1, progesterone receptor (Homo sapiens, UniProt P06401); experiment: Progesterone receptor activity of SA metabolites; type: biochemical
T1 sequence (P06401 1-933): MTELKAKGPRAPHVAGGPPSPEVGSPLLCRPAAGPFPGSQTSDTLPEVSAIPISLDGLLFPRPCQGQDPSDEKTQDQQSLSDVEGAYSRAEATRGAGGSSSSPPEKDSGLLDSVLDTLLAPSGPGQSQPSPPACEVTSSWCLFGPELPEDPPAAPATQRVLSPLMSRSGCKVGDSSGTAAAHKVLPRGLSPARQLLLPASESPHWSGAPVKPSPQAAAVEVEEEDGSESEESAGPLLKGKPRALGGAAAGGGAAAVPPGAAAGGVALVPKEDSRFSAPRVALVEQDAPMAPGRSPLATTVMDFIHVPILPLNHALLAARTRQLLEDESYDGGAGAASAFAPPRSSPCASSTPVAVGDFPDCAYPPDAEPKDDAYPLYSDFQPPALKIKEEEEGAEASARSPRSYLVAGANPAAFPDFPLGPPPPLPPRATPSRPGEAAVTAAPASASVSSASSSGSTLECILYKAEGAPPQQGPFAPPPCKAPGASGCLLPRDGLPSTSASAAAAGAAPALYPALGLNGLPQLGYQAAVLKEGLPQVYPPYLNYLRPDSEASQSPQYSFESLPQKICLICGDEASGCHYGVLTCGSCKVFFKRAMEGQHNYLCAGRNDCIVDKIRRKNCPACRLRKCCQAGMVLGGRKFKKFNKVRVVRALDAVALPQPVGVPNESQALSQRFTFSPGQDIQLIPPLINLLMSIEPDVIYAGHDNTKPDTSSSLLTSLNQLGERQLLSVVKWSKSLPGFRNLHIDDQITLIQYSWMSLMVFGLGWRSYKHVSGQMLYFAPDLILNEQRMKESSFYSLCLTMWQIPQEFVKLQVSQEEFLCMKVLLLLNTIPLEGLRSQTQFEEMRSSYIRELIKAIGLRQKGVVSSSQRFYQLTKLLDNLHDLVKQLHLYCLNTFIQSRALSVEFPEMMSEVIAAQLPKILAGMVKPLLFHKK
Source text: The hydroxylated EE metabolites have weak estrogenic activity.

[1] = Recoverable SA and EE after storage; type: physicochemical; settings: for amount recoverable from the vaginal system: over 24 months of storage at 25° C. and 60% relative humidity
Description: This was quite surprising as a similar trend was not observed during long-term stability studies on the cores before assembly.
• Diluent: methanol/water 58/42 v/v • Dried NES and EE before weighing (100-105° C. 3 h) • EE stock solution: Dissolved 25.0 mg of EE and diluted to 250.0 mL with methanol (duplicates, EE1 and EE2) • NES stock solution: Dissolved 50.0 mg of NES and diluted to 100.0 mL with methanol (duplicates, NES1 and NES2) • Standard solutions: • S1: Diluted 5.0 mL of NES1 and 4.0 mL of EE1 to 50.0 mL with diluent • S2: Diluted 6.0 mL of NES2 and 5.0 mL of EE2 to 50.0 mL with diluent • S3: Diluted 8.0 mL of NES1 and 7.0 mL of EE1 to 50.0 mL with diluent • S4: Diluted 10.0 mL of NES2 and 9.0 mL of EE2 to 50.0 mL with diluent • System suitability solution (SST solution): Diluted 5.0 mL acetone+7.0 mL NES1+6.0 mL EE1 to 50.0 mL with diluent.
Rings were cut into 8 pieces and each piece was divided lengthwise then transferred to an Erlenmeyer flask. • 140 mL of acetone (weight of flask was noted before and after acetone addition) was added to the flask.
• analytical column: Discovery C8, 5 μm, 150×4.6 mm (Supelco) • pre-column: Supelguard, Discovery C8, 5 μm, 20×4.0 mm (Supelco) • stationary phase: endcapped C8 (5 μm particle size) USP L7 • temperature: 30° ° C. Mobile phase: methanol/water 58/42, isocratic elution Flow rate: 1.2 mL/min Detection (assay): NES UV 240 nm, EE UV 280 nm Detection (identity): PDA (photodiode array detector) scanning 220-310 nm, NES 240 nm, EE 280 nm
Run time: 15 min System suitability: SST solution • Area precision (n=5): RSD (%)≤2.0 • Peak tailing (T): 0.8≤T≤1.5 • Blank injections: No interfering peaks Retention times: EE approximately 7 min and NES approximately 9 min Results Assay: Report the average value of three different rings and express as mg EE/ring and mg NES/ring. Results Content uniformity: Calculate the average value of ten different rings. Report with or without remarks according the guidelines outlined in the US Pharmacopeial Convention, incorporated herein by reference, and in particular USP <905>. […]

[2] = PK study in females with BMI <25 vs BMI >25; type: in vivo, human; settings: 18 females BMI <25 vs 21 females BMI >25
Source text: The vaginal system described herein has not been adequately evaluated in females with a body mass index of >29 kg/m2. […] Higher body weight associates with lower systemic exposure of SA and EE.

[3] = Drug-drug interaction study with vaginal miconazole formulations; type: in vivo; settings: for overall increase in exposure: with 1 day or 3-day oil-based miconazole suppository; for change in exposure from the vaginal system: with water-based vaginal miconazole cream
Source text: However, the use of either the 1 day or the 3-day oil-based miconazole suppository was associated with an overall increase in exposure up to 67% for EE and 32% for SA. Considering the potential long-term effect on vaginal system performance, concurrent use of oil-based vaginal suppositories should not occur with the system's use. If there is a need to treat a vaginal condition, water-based vaginal cream or oral therapy may be used concurrently with the vaginal system.

[4] = PK sub-study of the vaginal system over 13 product-use cycles (21 days in/7 days out), serum SA and EE; type: in vivo, human; design: AUC0-21 day / AUC0-1 day: concentration or dose not given beside the values
Description: The pharmacokinetics (PK) of the vaginal system described herein were determined during studies related to the prior approved use (i.e., 13 product-use cycles comprising a 21-day “product-in” period and a 7-day “product-out” period). Studies were conducted in 39 women who used the system for up to the 13 product-use cycles. […] Over subsequent product-use cycles, the peak serum concentrations of SA and EE declined.
During a phase 3 trial of the vaginal ring system, three centers participated in a PK sub-study. The PK sub-study was an open-label, multicenter, non-randomized phase 1 study evaluating the PK and pharmacodynamics (PD) of a self-administered vaginal ring system. Enrolled women were healthy, aged 18-38 years, who had regular cycles of 28±7 days and were sexually active with no intention of becoming pregnant for the following 13 months. Exclusion criteria were those typical for oral contraceptive assessments. Women were not permitted to use hormonal contraceptives (other than the study vaginal ring) or vaginal lubricants that could have interfered with steroid absorption during the study.
Women were instructed to use the SA/EE vaginal ring system for 13 consecutive cycles following a 21-days-in and 7-days-out regimen, with the initial ring insertion (day 1 of cycle 1) under investigator supervision at the study clinic. […] In the PK substudy, blood samples from each woman were collected 8 times (see below) per assessed cycles (1, 3, and 13) as per the protocol.
For serum SA and EE measurements, blood samples were collected on treatment days 1-5, 8, 15, and 22 during cycles 1, 3, and 13 with the serum stored at −20° C. Steroid concentrations were determined at each time point using a validated gas chromatography/tandem mass spectrometry (GC-MS/MS; Taylor Technology, Princeton, NJ); the lower limits of quantification (LLOQ) were 50 pg/mL (135 pmol/L) for SA and 10 pg/mL (33.74 pmol/L) for EE. The linear calibration range was 50.0 to 5000 pg/mL for SA and 10.0 to 1000 pg/mL for EE. The inter-assay coefficient of variation for SA was 7-15.5% and for EE 8-13% for low, medium, and high-quality control samples used during assays. The intra-assay coefficient of variation for both SA and EE was lower than 12%.

[5] = EE in serum, cycle 1, mean (SD)
[6] = EE in serum, cycle 3, mean (SD)
[7] = EE in serum, cycle 13, mean (SD)

EC50 to progesterone receptor, fold higher than that of SA (progesterone receptor): 10 fold
SMILES: C=C1CC2C3CCC4CC(=O)CCC4C3CCC2(C)C1(OC(C)=O)C(C)=O (stereo not drawn) [5α-dihydro]

amount recoverable from the vaginal system [1]: decreased in a time-dependent manner
decrease in systemic exposure (AUC 0-21 day) between the two BMI groups [2]: ≤ 33%
overall increase in exposure [3]: up to 67%
change in exposure from the vaginal system [3]: no change
Cavg ([4]; EE in serum, cycle 1, mean): 0.148 nM
Cmax ([4]; EE in serum, cycle 1, mean): 0.435 nM
AUC0-1 day [4, 5]: 7,077 (2,359) pmol*hr/L
AUC0-21 day [4, 5]: 74,814 (33,026) pmol*hr/L
Cavg ([4]; EE in serum, cycle 3, mean): 0.098 nM
AUC0-1 day [4, 6]: 3,033 (1,348) pmol*hr/L
AUC0-21 day [4, 6]: 49,539 (15,839) pmol*hr/L
Cavg ([4]; EE in serum, cycle 13, mean): 0.064 nM
AUC0-1 day [4, 7]: 2,359 (1,011) pmol*hr/L
AUC0-21 day [4, 7]: 32,352 (13,817) pmol*hr/L
Cmax ([4]; female, human, serum, other: vaginal, EE in serum, cycle 3, mean): 0.202 nM
Cmax ([4]; female, human, serum, other: vaginal, EE in serum, cycle 13, mean): 0.131 nM
Tmax ([4]; female, human, serum, vaginal administration, product-use cycles 1, 3 and 13, read-out: median Tmax): ~2 h
SMILES: C#C[C@]1(O)CC[C@H]2[C@@H]3CCc4cc(O)ccc4[C@H]3CC[C@@]21C [EE, 19-nor-17α-pregna-1,3,5(10)-trien-20-yne-3,17-diol]
amount recoverable from the core by extraction ([1]; cores before assembly, after extended storage): full amount of EE was found to be recoverable

SMILES: C=C1C[C@H]2[C@@H]3CCC4=CC(=O)CC[C@@H]4[C@H]3CC[C@]2(C)[C@@]1(OC(C)=O)C(C)=O [SA, 16-methylene-17α-acetoxy-19-nor-pregn-4-ene-3,20-dione]
amount recoverable from the vaginal system [1]: remained essentially constant
decrease in systemic exposure (AUC 0-21 day) between the two BMI groups [2]: up to 16%
overall increase in exposure [3]: ≤ 32%
change in exposure from the vaginal system [3]: no change
AUC0-21 day ([4]; SA in serum, cycle 1, mean): 259,740 pmol*hr/L
Cavg ([4]; SA in serum, cycle 1, mean): 0.516 nM
Cmax ([4]; SA in serum, cycle 1, mean): 3.1 nM
AUC0-1 day ([4]; SA in serum, cycle 1, mean (SD)): 40,500 (8,640) pmol*hr/L
AUC0-21 day ([4]; SA in serum, cycle 3, mean): 480,330 pmol*hr/L
Cavg ([4]; SA in serum, cycle 3, mean): 0.3537 nM
Cmax ([4]; SA in serum, cycle 3, mean): 0.98 nM
AUC0-1 day ([4]; SA in serum, cycle 3, mean (SD)): 36,450 (4,320) pmol*hr/L
AUC0-21 day ([4]; SA in serum, cycle 13, mean): 127,440 pmol*hr/L
Cavg ([4]; SA in serum, cycle 13, mean): 0.254 nM
Cmax ([4]; SA in serum, cycle 13, mean): 0.794 nM
AUC0-1 day ([4]; SA in serum, cycle 13, mean (SD)): 10,530 (3,780) pmol*hr/L
